This is an account of results in US8802678B2, “Carbonylated (aza) cyclohexanes as dopamine D3 receptor ligands” (Bioprojet, priority 2006, dated 2014).

Turning to `O=C(N[C@H]1CC[C@H](CCN2CCN(c3cccc(C(F)(F)F)c3)CC2)CC1)C1CCCO1` (stereo partly drawn) [Example 40, Tetrahydrofuran-2-carboxylic acid (4-{2-[4-(3-trifluoromethylphenyl)piperazin-1-yl]ethyl}cyclohexyl)amide], the melting point was 135 °C.
To `COCC(=O)N[C@H]1CC[C@H](CCN2CCN(c3cccc(C(F)(F)F)c3)CC2)CC1` [Example 41, 2-Methoxy-N-(4-{2-[4-(3-trifluoromethylphenyl)piperazin-1-yl]ethyl}cyclohexyl)acetamide] belongs 123 °C; to `O=C(N[C@H]1CC[C@H](CCN2CCN(c3cccc(C(F)(F)F)c3)CC2)CC1)C(F)F` [Example 44, 2,2-Difluoro-N-(4-{2-[4-(3-trifluoromethylphenyl)piperazin-1-yl]ethyl}cyclohexyl)acetamide], 128 °C.
To `O=C(N[C@H]1CC[C@H](CCN2CCN(c3cccc(C(F)(F)F)c3)CC2)CC1)C1=CCCC1` [Example 45, Cyclopent-1-enecarboxylic acid (4-{2-[4-(3-trifluoromethyl-phenyl)piperazin-1-yl]ethyl}cyclohexyl)amide] belongs 175 °C.
To `COCCC(=O)N[C@H]1CC[C@H](CCN2CCN(c3cccc(C(F)(F)F)c3)CC2)CC1` [Example 47, 3-Methoxy-N-(4-{2-[4-(3-trifluoromethylphenyl)piperazin-1-yl]ethyl}cyclohexyl)propanamide] belongs 125 °C.
As to `COCC(=O)N[C@H]1CC[C@H](CCN2CCN(c3ccc(F)cc3F)CC2)CC1` [Example 48, N-(4-{2-[4-(2,4-Difluorophenyl)-piperazin-1-yl]ethyl}cyclohexyl)-2-methoxyacetamide], the melting point is 154 °C.
In turn, `COCC(=O)N[C@H]1CC[C@H](CCN2CCN(c3cccc(C)c3C#N)CC2)CC1` [Example 49, N-(4-{2-[4-(2-Cyano-3-methylphenyl)piperazin-1-yl]ethyl}cyclohexyl)-2-methoxyacetamide] showed a melting point of 136 °C.
As for `COCC(=O)N[C@H]1CC[C@H](CCN2CCN(c3ccccc3F)CC2)CC1` [Example 50, N-(4-{2-[4-(2-Fluorophenyl)-piperazin-1-yl]ethyl}cyclohexyl)-2-methoxyacetamide], the melting point was in the range of 143 to 144 °C.
Next, `O=C(N[C@H]1CC[C@H](CCN2CCN(c3cccc(C(F)(F)F)c3)CC2)CC1)C1CC=CC1` [Example 52, Cyclopent-3-enecarboxylic acid (4-{2-[4-(3-trifluoromethylphenyl)-piperazin-1-yl]ethyl}cyclohexyl)-amide]: 183 °C.
Compound `O=C(N[C@H]1CC[C@H](CCN2CCN(c3cccc(C(F)(F)F)c3)CC2)CC1)C1=CCCCC1` [Example 53, Cyclohex-1-enecarboxylic acid (4-{2-[4-(3-trifluoromethylphenyl)-piperazin-1-yl]ethyl}cyclohexyl)-amide] registered a melting point of 175 °C.
For the compound `COCC(=O)N[C@H]1CC[C@H](CCN2CCC(c3cccc(C)c3C#N)CC2)CC1` [Example 55, N-(4-{2-[4-(2-Cyano-3-methylphenyl)piperidin-1-yl]ethyl}cyclohexyl)-2-methoxyacetamide], the melting point came out at 141 °C.
Take `CCOCC(=O)N[C@H]1CC[C@H](CCN2CCN(c3ccccc3F)CC2)CC1` [Example 56, 2-Ethoxy-N-(4-{2-[4-(2-fluorophenyl)piperazin-1-yl]ethyl}cyclohexyl)acetamide]: the melting point was 117 to 118 °C.
The compound `O=C(N[C@H]1CC[C@H](CCN2CCN(c3ccccc3F)CC2)CC1)C1CCCO1` (stereo partly drawn) [Example 57, Tetrahydrofuran-2-carboxylic acid (4-{2-[4-(2-fluorophenyl)piperazin-1-yl]ethyl}cyclohexyl)amide] returned a melting point of 119 to 120 °C.
Next, `COCC(=O)N[C@H]1CC[C@H](CCN2CCN(c3ccccc3C#N)CC2)CC1` [Example 58, N-(4-{2-[4-(2-Cyanophenyl)-piperazin-1-yl]ethyl}cyclohexyl)-2-methoxyacetamide]: 113 °C; `COCC(=O)N[C@H]1CC[C@H](CCN2CCN(c3ccccc3)CC2)CC1` [Example 60, 2-Methoxy-N-{4-[2-(4-phenylpiperazin-1-yl)ethyl]-cyclohexyl}acetamide]: 136 °C.
Turning to `O=C(CC(F)(F)F)N[C@H]1CC[C@H](CCN2CCN(c3cccc(C(F)(F)F)c3)CC2)CC1` [Example 63, 3,3,3-Trifluoro-N-(4-{2-[4-(3-trifluoromethylphenyl)piperazin-1-yl]ethyl}cyclohexyl)propanamide], the melting point was 156 °C.
Next, `COCCCC(=O)N[C@H]1CC[C@H](CCN2CCN(c3cccc(C(F)(F)F)c3)CC2)CC1` [Example 64, 4-Methoxy-N-(4-{2-[4-(3-trifluoromethylphenyl)piperazin-1-yl]ethyl}cyclohexyl)butanamide]: 149 °C; `O=C(N[C@H]1CC[C@H](CCN2CCN(c3ccccc3)CC2)CC1)C1=CCCCC1` [Example 66, Cyclohex-1-enecarboxylic acid {4-[2-(4-phenylpiperazin-1-yl)ethyl]cyclohexyl}amide trans/cis 90/10]: 193 °C.
To `O=C(N[C@H]1CC[C@H](CCN2CCN(c3ccccc3F)CC2)CC1)C1=CCCCC1` [Example 67, Cyclohex-1-enecarboxylic acid (4-{2-[4-(2-fluorophenyl)-piperazin-1-yl]ethyl}cyclohexyl)-amide] belongs 209 °C; to `O=C(N[C@H]1CC[C@H](CCN2CCN(c3ccccc3F)CC2)CC1)C1=CCCC1` [Example 68, Cyclopent-1-enecarboxylic acid (4-{2-[4-(2-fluorophenyl)-piperazin-1-yl]ethyl}-cyclohexyl)amide], 210 to 211 °C; to `O=C(N[C@H]1CC[C@H](CCN2CCN(c3ccccc3F)CC2)CC1)C1CC=CC1` [Example 70, Cyclopent-3-enecarboxylic acid (4-{2-[4-(2-fluorophenyl)-piperazin-1-yl]ethyl}-cyclohexyl)amide trans/cis 95/5], 204 °C.
With `O=C(N[C@H]1CC[C@H](CCN2CCN(c3ccc(F)cc3F)CC2)CC1)C1=CCCCC1` [Example 71, Cyclohex-1-enecarboxylic acid (4-{2-[4-(2,4-difluorophenyl)-piperazin-1-yl]ethyl}-cyclohexyl)amide], the melting point worked out at 203 °C.
To `CCOCC(=O)N[C@H]1CC[C@H](CCN2CCN(c3ccccc3C#N)CC2)CC1` [Example 73, N-(4-{2-[4-(2-Cyanophenyl)-piperazin-1-yl]ethyl}cyclohexyl)-2-ethoxyacetamide] belongs 96 °C; to `N#Cc1ccccc1N1CCN(CC[C@H]2CC[C@H](NC(=O)C3=CCCC3)CC2)CC1` [Example 74, Cyclopent-1-enecarboxylic acid (4-{2-[4-(2-cyanophenyl)-piperazin-1-yl]ethyl}cyclohexyl)-amide], 167 °C; to `COCCCC(=O)N[C@H]1CC[C@H](CCN2CCN(c3ccccc3F)CC2)CC1` [Example 76, N-(4-{2-[4-(2-Fluorophenyl)-piperazin-1-yl]ethyl}cyclohexyl)-4-methoxybutanamide], 175 °C.
Turning to `COC(C)(C)C(=O)N[C@H]1CC[C@H](CCN2CCN(c3cccc(C(F)(F)F)c3)CC2)CC1` [Example 77, 2-Methoxy-2-methyl-N-(4-{2-[4-(3-trifluoromethylphenyl)-piperazin-1-yl]ethyl}cyclohexyl)-propanamide], the melting point was found to be 105 °C.
To `CCOCC(=O)N[C@H]1CC[C@H](CCN2CCN(c3cccc(C#N)c3)CC2)CC1` [Example 78, N-(4-{2-[4-(3-Cyanophenyl)-piperazin-1-yl]ethyl}cyclohexyl)-2-ethoxyacetamide trans/cis 75/25] belongs 90 °C; to `N#CCC(=O)N[C@H]1CC[C@H](CCN2CCN(c3ccccc3F)CC2)CC1` [Example 79, 2-Cyano-N-(4-{2-[4-(2-fluorophenyl)piperazin-1-yl]ethyl}cyclohexyl)acetamide], 179 to 180 °C; to `CSCC(=O)N[C@H]1CC[C@H](CCN2CCN(c3cccc(C(F)(F)F)c3)CC2)CC1` [Example 80, 2-Methylsulfanyl-N-(4-{2-[4-(3-trifluoromethylphenyl)piperazin-1-yl]ethyl}cyclohexyl)acetamide], 128 °C.
With `CCOCC(=O)N[C@H]1CC[C@H](CCN2CCC(c3cccc(C(F)(F)F)c3)CC2)CC1` [Example 83, 2-Ethoxy-N-(4-{2-[4-(3-trifluoromethylphenyl)piperidin-1-yl]ethyl}cyclohexyl)acetamide], the melting point turned out to be 84 °C.
To `COCCCC(=O)N[C@H]1CC[C@H](CCN2CCC(c3cccc(C(F)(F)F)c3)CC2)CC1` [Example 84, 4-Methoxy-N-(4-{2-[4-(3-trifluoromethylphenyl)piperidin-1-yl]ethyl}cyclohexyl)butanamide] belongs 134 °C; to `COCC(=O)N[C@H]1CC[C@H](CCN2CCN(c3cccc(C#N)c3)CC2)CC1` [Example 86, N-(4-{2-[4-(3-Cyanophenyl)piperazin-1-yl]ethyl}cyclohexyl)-2-methoxyacetamide], 138 °C; to `O=C(CC(F)(F)F)N[C@H]1CC[C@H](CCN2CCN(c3ccccc3F)CC2)CC1` [Example 87, 3,3,3-Trifluoro-N-(4-{2-[4-(2-fluorophenyl)piperazin-1-yl]ethyl}cyclohexyl)propanamide], 207 °C.
To `O=C(COc1ccccc1)N[C@H]1CC[C@H](CCN2CCN(c3ccccc3F)CC2)CC1` [Example 88, N-(4-{2-[4-(2-Fluorophenyl)-piperazin-1-yl]ethyl}cyclohexyl)-2-phenoxyacetamide] belongs 172 °C; to `CCC(=O)C(=O)N[C@H]1CC[C@H](CCN2CCN(c3ccccc3F)CC2)CC1` [Example 89, N-(4-{2-[4-(2-Fluorophenyl)-piperazin-1-yl]ethyl}cyclohexyl)-2-oxobutanamide], 156 °C.
To `N#CCC(=O)N[C@H]1CC[C@H](CCN2CCN(c3cccc(C#N)c3)CC2)CC1` [Example 90, 2-Cyano-N-(4-{2-[4-(3-cyanophenyl)piperazin-1-yl]ethyl}cyclohexyl)acetamide trans/cis 75/25] belongs 188 °C.
